ChEMBL document CHEMBL4425153, “Matched and mixed cap derivatives in the tetracyclic indole class of HCV NS5A inhibitors” (Bioorg Med Chem Lett, 2016)
Positions count from the first letter of the chain named.

Assays:
[1] = test system: Nonstructural protein 5A (Hepatitis C virus), Q5L478 [UNDEFINED MUTATION]; assay: Inhibition of HCV genotype 1a NS5A L31V mutant assessed as reduction in viral RNA level by cell based real time PCR method; settings: Hepatitis C virus subtype 1a
[2] = Drug level in rat at 10 mg/kg measured at 1 hr; format: ADME, organism-based; settings: in vivo, read-out: Drug uptake
[3] = test system: T1, Nonstructural protein 5A (Hepatitis C virus), Q5L478 [Y93H]; assay: Inhibition of HCV genotype 1a NS5A Y93H mutant assessed as reduction in viral RNA level by cell based real time PCR method; settings: Hepatitis C virus subtype 1a
T1 sequence (whole entry): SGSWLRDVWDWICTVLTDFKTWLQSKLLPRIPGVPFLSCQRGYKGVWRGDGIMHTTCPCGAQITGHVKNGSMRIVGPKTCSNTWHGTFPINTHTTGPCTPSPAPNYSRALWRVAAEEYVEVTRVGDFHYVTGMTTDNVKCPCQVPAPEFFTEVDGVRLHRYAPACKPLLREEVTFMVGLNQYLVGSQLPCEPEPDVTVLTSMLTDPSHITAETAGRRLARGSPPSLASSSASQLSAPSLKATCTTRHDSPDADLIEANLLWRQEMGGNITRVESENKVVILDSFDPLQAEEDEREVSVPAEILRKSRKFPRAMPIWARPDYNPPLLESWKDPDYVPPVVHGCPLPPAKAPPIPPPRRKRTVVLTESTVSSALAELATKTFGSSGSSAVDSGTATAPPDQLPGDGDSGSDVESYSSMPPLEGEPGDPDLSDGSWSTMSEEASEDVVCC

[4] = target: T2, Nonstructural protein 5A (Hepatitis C virus) (UniProt Q5L478); assay: Inhibition of wild type HCV genotype 1a NS5A assessed as reduction in viral RNA level by cell based real time PCR method; settings: Hepatitis C virus subtype 1a
T2 sequence (whole entry): T1 sequence (whole entry) with H93Y

[5] = Tmax in rat at 10 mg/kg; format: ADME, organism-based; settings: in vivo
[6] = target: T2, Nonstructural protein 5A (Hepatitis C virus); assay: Inhibition of wild type HCV genotype 2b NS5A assessed as reduction in viral RNA level by cell based real time PCR method; settings: Hepatitis C virus subtype 2b
[7] = Cmax in rat at 10 mg/kg; format: ADME, organism-based; design: dose 10 mg/kg; settings: in vivo
[8] = Cmax in rat at 5 mg/kg; format: ADME, organism-based; design: dose 5 mg/kg; settings: in vivo
[9] = AUC in rat at 5 mg/kg; format: ADME, organism-based; settings: in vivo
[10] = Oral bioavailability in rat at 5 mg/kg; format: ADME, organism-based; settings: in vivo
[11] = Half life in rat at 5 mg/kg; format: ADME, organism-based; settings: in vivo

Structure (SMILES) | EC90 [1] | concentration at 1 h [2] | EC90 [3] | EC90 [4] | Tmax [5] | EC90 [6] | Cmax [7] | Cmax [8] | AUC [9] | bioavailability [10] | half-life [11]
COC(=O)N[C@H](C(=O)N1CCC[C@H]1c1ncc(-c2ccc3c(c2)cc2n3[C@H](c3ccccc3)Oc3cc(-c4cnc([C@@H]5CCCN5C(=O)[C@@H](NC(=O)OC)C5CCOCC5)[nH]4)ccc3-2)[nH]1)C(C)C | 0.4 nM | 30 nM | 11 nM | 0.061 nM | 45 min | 4 nM | 31 nM | – | – | – | –
COC(=O)N[C@H](C(=O)N1CCC[C@H]1c1ncc(-c2ccc3c(c2)O[C@@H](c2ccccc2)n2c-3cc3cc(-c4cnc([C@@H]5CCCN5C(=O)[C@@H](NC(=O)OC)C5CCOCC5)[nH]4)ccc32)[nH]1)C1CCOCC1 | < 0.2 nM | – | 23 nM | 0.06 nM | – | 1.2 nM | – | 20 nM | 4 nM·h | 0% | 144 min
COC(=O)N[C@@H](CC1CCOCC1)C(=O)N1CCC[C@H]1c1ncc(-c2ccc3c(c2)cc2n3[C@H](c3ccccc3)Oc3cc(-c4cnc([C@@H]5CCCN5C(=O)[C@@H](NC(=O)OC)C(C)C)[nH]4)ccc3-2)[nH]1 | 0.33 nM | – | 24 nM | 0.014 nM | – | 8.9 nM | – | – | – | – | –
COC(=O)N[C@H](C(=O)N1CCC[C@H]1c1ncc(-c2ccc3c(c2)O[C@@H](c2ccccc2)n2c-3cc3cc(-c4cnc([C@@H]5CCCN5C(=O)[C@@H](NC(=O)OC)[C@@H](C)O)[nH]4)ccc32)[nH]1)[C@@H](C)O | > 100 nM | – | > 100 nM | > 1 nM | – | > 100 nM | – | – | – | – | –
COC(=O)N[C@H](C(=O)N1CCC[C@H]1c1ncc(-c2ccc3c(c2)O[C@@H](c2ccccc2)n2c-3cc3cc(-c4cnc([C@@H]5CCCN5C(=O)[C@@H](NC(=O)OC)C5CCOCC5)[nH]4)ccc32)[nH]1)C(C)C | 0.6 nM | – | 11 nM | 0.06 nM | – | 9 nM | – | – | – | – | –
CN(C)[C@@H](C(=O)N1CCC[C@H]1c1ncc(-c2ccc3c(c2)O[C@@H](c2ccccc2)n2c-3cc3cc(-c4cnc([C@@H]5CCCN5C(=O)[C@@H](c5ccccc5)N(C)C)[nH]4)ccc32)[nH]1)c1ccccc1 | 2.1 nM | – | > 100 nM | 0.3 nM | – | 0.87 nM | – | – | – | – | –
